US6994986B2, “In vitro synthesis of polypeptides by optimizing amino acid metabolism” (The Board of Trustees of the Leland Stanford University, priority 1999, dated 2006)

Tests used:
E. coli S30 extract [1] = assay: Cell-free protein synthesis, PEP system (phosphoenol pyruvate / pyruvate kinase ATP regeneration); format: biochemical, Escherichia coli
Procedure: (§1) Throughout the examples to follow, two standard methods were used for cell-free protein synthesis. The first uses phosphoenol pyruvate (PEP) and pyruvate kinase to regenerate ATP from ADP. This is termed the PEP system. The second uses pyruvate and pyruvate oxidase to regenerate ATP. This is called the pyruvate system.
57 mM Hepes-KOH (pH 8.2), 1.2 mM ATP, 0.85 mM each of GTP, UTP and CTP, 1 mM DTT, 0.64 mM cAMP, 200 mM potassium glutamate, 80 mM NH4(OAc), 15 mM Mg(OAc)2, […] folinic acid, 6.7 μg/ml plasmid, 33 μg/ml T7 RNA polymerase, 500 μM each of 20 unlabeled amino acids, [^3H] leucine (0.27 GBq/mmol), 2% PEG 8000, 20 mM PEP (phosphoenol pyruvate), and 0.24 volumes of S30 extract. […]
(§2) Reactions were conducted for given time periods in a water bath set at 37° C. The amount of synthesized protein was estimated from the measured cold TCA-insoluble radioactivities as described (Kim et al., supra.) Radioactivities of samples were measured in a liquid scintillation counter (Beckman). […]
(§3) The amount of synthesized protein was estimated from the measured TCA-insoluble radioactivities as described earlier (Kim et al., 1996a, supra.) Radioactivities of samples were measured in a liquid scintillation counter (Beckman LS3801). […]

acetate kinase = acetate kinase (Escherichia coli, UniProt P0A6A3); details: read-out: Km value of acetate kinase for acetyl phosphate; cited from earlier work
[2] = target: T1, phosphoenol pyruvate synthetase (pps) (Escherichia coli, UniProt P23538); assay: Aspartic acid/asparagine formation in the cell-free reaction mixture; format: biochemical, E. coli; details: 2.7 mM oxalic acid; FIG. 6
T1 construct: endogenous in cells; host or cells: E. coli K12 strain A19, S30 cell extract
Procedure: (§4) The observations indicated in the previous examples prompted the measurement of individual amino acid concentrations during the course of a protein synthesis reaction. In this case, a pyruvate-driven reaction of 900 μl was started. Samples of 100 μl were taken each hour, diluted 1:1 with cold water and deproteinized by adding 200 μl of cold 10% TCA (trichloroacetic acid) solution. After centrifugation the supernatant was analyzed using a Beckman 1600 amino acid analyzer. […] This is a potentially serious source of reaction inefficiency. In the second case, the depletion of the three amino acids is most likely the reason that prolonging the reaction required amino acids addition.
The conversion of pyruvate to PEP is catalyzed by the enzyme, phosphoenol pyruvate synthetase (pps). Oxalic acid has been reported to inhibit pps. To test to see if the pps reaction is indeed responsible for aspartic acid and asparagine synthesis and to test if these reactions are reducing the protein yield, 2.7 mM oxalic acid was added to both the pyruvate system and the PEP system. […] With the pyruvate system, less pyruvate and ATP are being lost to amino acid formation. In the case with PEP as the energy source, pyruvate is the direct product after PEP transfers its phosphate to ADP. That pyruvate will then be converted back into PEP by pps, but at the cost of two ATP's for each new PEP molecule. […]

E. coli S30 extract [3] = assay: Cell-free protein synthesis, pyruvate system (pyruvate / pyruvate oxidase ATP regeneration); format: biochemical, Escherichia coli
Procedure: as §1
T7 RNA polymerase was prepared from the culture of E. coli strain BL21 (pAR1219) according to the slightly modified procedures of Davanloo et al. (1984) Proc. Natl. Acad. Sci. U.S.A. 81: 2035–2039. S30 extract was prepared from wild type E. coli K12 (strain A19) according to the procedures reported earlier (Kim et al., supra.). The standard reaction mixture for the pyruvate system is nearly identical. […]
as §2, §3

arginine decarboxylase = target: T2, arginine decarboxylase (Escherichia coli, UniProt P21170); assay: Arginine depletion in the cell-free reaction mixture (amino acid analysis); format: biochemical, E. coli; set-up: dose or concentration left out as unconfirmed; details: spermidine; FIG. 5
T2 construct: endogenous in cells; host or cells: E. coli K12 strain A19, S30 cell extract
Procedure: as §4
The data shown in FIGS. 3 and 4 indicate that the degradation of three amino acids, arginine, cysteine and tryptophan is seriously limiting the efficiency and duration of the protein synthesis reaction. […] In the case of arginine, one possible cause is the action of arginine decarboxylase. This is the first enzyme in the pathway for the conversion of arginine to putrescine and spermidine, cationic molecules important for normal bacterial physiology. Putrescine and spermidine can also be produced from ornithine, but arginine is preferred when it is available. (See FIG. 10) Arginine decarboxylase is known to be feedback inhibited by spermidine. […]

Sequence of acetate kinase (P0A6A3 whole entry): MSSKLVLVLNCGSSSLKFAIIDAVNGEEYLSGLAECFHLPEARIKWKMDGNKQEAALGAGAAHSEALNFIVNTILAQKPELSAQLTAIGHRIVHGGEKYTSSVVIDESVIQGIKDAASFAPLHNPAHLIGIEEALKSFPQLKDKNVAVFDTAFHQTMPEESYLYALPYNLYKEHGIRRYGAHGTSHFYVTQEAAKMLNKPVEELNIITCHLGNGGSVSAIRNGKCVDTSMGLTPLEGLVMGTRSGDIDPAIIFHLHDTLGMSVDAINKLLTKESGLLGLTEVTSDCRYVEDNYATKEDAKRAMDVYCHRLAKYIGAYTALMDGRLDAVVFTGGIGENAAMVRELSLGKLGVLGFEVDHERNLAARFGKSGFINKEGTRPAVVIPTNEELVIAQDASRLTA
T2 sequence (P21170 whole entry): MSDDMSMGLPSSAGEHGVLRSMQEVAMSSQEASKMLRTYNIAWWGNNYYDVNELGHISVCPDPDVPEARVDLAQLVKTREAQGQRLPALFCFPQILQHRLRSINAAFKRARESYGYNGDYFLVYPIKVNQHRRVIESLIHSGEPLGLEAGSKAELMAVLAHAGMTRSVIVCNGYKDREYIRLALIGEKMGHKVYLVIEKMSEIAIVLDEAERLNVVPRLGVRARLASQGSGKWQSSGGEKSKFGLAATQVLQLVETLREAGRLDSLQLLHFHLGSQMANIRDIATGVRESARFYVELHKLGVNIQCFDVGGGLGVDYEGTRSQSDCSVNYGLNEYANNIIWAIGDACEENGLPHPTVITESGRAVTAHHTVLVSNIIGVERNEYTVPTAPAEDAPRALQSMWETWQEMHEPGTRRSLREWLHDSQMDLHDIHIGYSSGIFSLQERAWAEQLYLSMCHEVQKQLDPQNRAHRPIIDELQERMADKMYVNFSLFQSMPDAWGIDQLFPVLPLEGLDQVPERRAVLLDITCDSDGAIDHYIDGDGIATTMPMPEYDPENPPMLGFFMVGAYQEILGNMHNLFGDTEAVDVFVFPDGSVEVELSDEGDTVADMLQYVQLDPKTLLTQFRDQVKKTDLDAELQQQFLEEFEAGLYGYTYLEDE
T1 sequence (P23538 whole entry): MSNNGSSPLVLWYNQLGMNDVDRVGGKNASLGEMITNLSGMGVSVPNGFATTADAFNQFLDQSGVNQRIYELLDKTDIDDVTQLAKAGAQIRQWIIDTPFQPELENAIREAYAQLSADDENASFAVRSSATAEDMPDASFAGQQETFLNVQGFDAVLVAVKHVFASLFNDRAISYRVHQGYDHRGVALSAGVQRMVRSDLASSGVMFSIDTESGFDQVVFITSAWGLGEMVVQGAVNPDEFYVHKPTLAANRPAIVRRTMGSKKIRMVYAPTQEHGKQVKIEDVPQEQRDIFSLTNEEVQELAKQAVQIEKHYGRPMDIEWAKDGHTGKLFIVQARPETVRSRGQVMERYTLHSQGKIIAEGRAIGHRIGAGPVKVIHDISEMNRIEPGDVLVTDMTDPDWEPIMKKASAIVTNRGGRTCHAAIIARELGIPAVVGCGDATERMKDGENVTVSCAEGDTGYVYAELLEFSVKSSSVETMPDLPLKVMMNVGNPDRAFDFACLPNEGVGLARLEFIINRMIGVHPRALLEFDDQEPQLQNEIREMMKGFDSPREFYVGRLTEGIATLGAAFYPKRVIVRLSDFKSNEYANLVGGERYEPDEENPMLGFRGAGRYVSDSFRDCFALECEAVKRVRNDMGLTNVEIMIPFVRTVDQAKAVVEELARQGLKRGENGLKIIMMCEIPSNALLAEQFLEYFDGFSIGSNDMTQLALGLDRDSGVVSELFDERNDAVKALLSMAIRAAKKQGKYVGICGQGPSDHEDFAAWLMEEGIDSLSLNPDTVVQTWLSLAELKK

CC(=O)OP(=O)(O)O [acetyl phosphate]
support of protein synthesis as energy source (E. coli S30 extract [1]; energy source in place of PEP): as efficiently as PEP
Km (acetate kinase): 200 µM

O=C(O)C(=O)O [oxalic acid]
protein yield (E. coli S30 extract [1]; 2.7 mM oxalic acid, PEP system, FIG. 8): increases the protein yield
formation of aspartic acid and asparagine [2]: reduced
protein yield (E. coli S30 extract [3]; 2.7 mM oxalic acid, pyruvate system, FIG. 7): increases the protein yield

NCCCCNCCCN [spermidine]
arginine depletion (arginine decarboxylase): significantly slow arginine depletion

catalase
effect on rate or duration of protein synthesis (E. coli S30 extract [3]; exogenous catalase added to the reaction mixture): did not affect either the rate or duration of protein synthesis
